Measured values as given in paper PMC7397269, “Synthesis and Evaluation of New Coumarin Derivatives as Antioxidant, Antimicrobial, and Anti-Inflammatory Agents” (Molecules, 2020).
Values after ≈ are worked out from the molar mass of the structure shown. Values joined by “and” are separate entries in the source; they are usually repeats but may differ in a detail not shown here. Equal entries are not always repeated.

Legend:
[1] = system: Bacillus megaterium ATCC 9885; experiment: MIC, two-fold serial dilution, B. megaterium; assay type: cell-based; details: Priestia megaterium, ATCC9885, read-out: Minimum inhibitory concentration, BM
Procedure, shortened: (§1)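 Broth tube dilution, two-fold, final 1000–125 μg/mL; inoculum 1 × 10^8 CFU/mL bacteria, 1 × 10^6 CFU/mL yeast (0.1 mL/5 mL); 37 °C, 24 h; MIC read as lowest conc. with no visible growth. Only agar-diffusion actives (IZ > 16 mm) tested.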

[2] = system: Pseudomonas aeruginosa ATCC 27,953; experiment: Agar well diffusion, P. aeruginosa; assay type: cell-based; details: ATCC27, 100 μL of 10 mg/mL in DMSO, read-out: diameter of inhibition zone, PA
Procedure, shortened: (§2)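 Bacterial lawns (100 μL of 1 × 10^8 CFU/mL) were spread on nutrient agar and yeast lawns (1 × 10^6 CFU/mL) on Sabouraud dextrose agar. 10 mm wells received 100 μL of compound at 10 mg/mL in DMSO, and plates were incubated 24 h at 37 °C. Inhibition zone diameter (mm) was averaged over triplicates.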

[3] = system: trypsin; experiment: Proteinase-inhibitory activity; assay type: biochemical; details: 250 µg/mL; mean ± SD (n = 3)
Procedure, shortened: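 Trypsin (0.06 mg per 2 mL, 20 mM Tris-HCl pH 7.4) was preincubated 5 min with test sample at 250 µg/mL, then 0.8% casein was added for 20 min. Perchloric acid stopped the reaction and supernatant absorbance was read at 280 nm. % inhibition is relative to the no-sample control, in triplicate.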

[4] = system: Escherichia coli ATCC 2592; experiment: MIC, two-fold serial dilution, E. coli; assay type: cell-based; details: ATCC2592, read-out: Minimum inhibitory concentration, EC
Procedure, shortened: as §1

[5] = system: Saccharomyces cerevisiae local isolate; experiment: Agar well diffusion, S. cerevisiae; assay type: cell-based; details: well diffusion, 100 μL of 10 mg/mL in DMSO, S. cerevisiae, read-out: diameter of inhibition zone, SC
Procedure, shortened: as §2

[6] = system: Staphylococcus aureus ATCC 29213; experiment: Agar well diffusion, S. aureus; assay type: cell-based; details: ATCC29213, 100 μL of 10 mg/mL in DMSO, read-out: diameter of inhibition zone, SA
Procedure, shortened: as §2

[7] = system: Pseudomonas aeruginosa ATCC 27,953; experiment: MIC, two-fold serial dilution, P. aeruginosa; assay type: cell-based; details: ATCC27, read-out: Minimum inhibitory concentration, PA
Procedure, shortened: as §1

[8] = target: T1, COX-1 (Homo sapiens, UniProt P23219); experiment: COX-1 inhibition, Cayman assay kit; assay type: biochemical; details: mean of two determinations
T1 construct: purchased Cayman Chemical 701070
T1 sequence (P23219 24-599): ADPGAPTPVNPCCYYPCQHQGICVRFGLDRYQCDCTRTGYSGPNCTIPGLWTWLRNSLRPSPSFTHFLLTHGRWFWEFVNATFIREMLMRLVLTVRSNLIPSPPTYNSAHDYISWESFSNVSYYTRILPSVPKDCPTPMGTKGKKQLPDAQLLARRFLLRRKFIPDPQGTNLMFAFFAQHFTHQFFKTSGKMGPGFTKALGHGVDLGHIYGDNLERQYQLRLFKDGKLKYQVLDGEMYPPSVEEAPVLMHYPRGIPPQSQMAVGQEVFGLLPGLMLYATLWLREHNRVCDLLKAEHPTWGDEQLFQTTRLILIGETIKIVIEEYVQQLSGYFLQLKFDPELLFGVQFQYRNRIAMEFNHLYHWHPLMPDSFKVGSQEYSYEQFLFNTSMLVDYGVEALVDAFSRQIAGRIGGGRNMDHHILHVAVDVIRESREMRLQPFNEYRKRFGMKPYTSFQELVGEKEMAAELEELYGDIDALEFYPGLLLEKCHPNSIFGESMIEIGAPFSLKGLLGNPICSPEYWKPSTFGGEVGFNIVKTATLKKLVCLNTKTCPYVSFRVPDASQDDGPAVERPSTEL

[9] = system: Candida albicans NRRL Y-477; experiment: Agar well diffusion, C. albicans; assay type: cell-based; details: NRRLY477, 100 μL of 10 mg/mL in DMSO, read-out: diameter of inhibition zone, CA
Procedure, shortened: as §2

[10] = system: Bacillus subtilis ATCC 6633; experiment: Agar well diffusion, B. subtilis; assay type: cell-based; details: ATCC6633, 100 μL of 10 mg/mL in DMSO, read-out: diameter of inhibition zone, BS
Procedure, shortened: as §2

[11] = system: Bacillus megaterium ATCC 9885; experiment: Agar well diffusion, B. megaterium; assay type: cell-based; details: Priestia megaterium, ATCC9885, 100 μL of 10 mg/mL in DMSO, read-out: diameter of inhibition zone, BM
Procedure, shortened: as §2

[12] = target: T2, COX-2 (Homo sapiens, UniProt P35354); experiment: COX-2 inhibition, Cayman assay kit; assay type: biochemical; details: for IC50: mean of two determinations; for SI, selectivity index (COX-1/COX-2): ratio of COX-1/COX-2 IC50
T2 construct: purchased Cayman Chemical 701080
T2 sequence (P35354 18-604): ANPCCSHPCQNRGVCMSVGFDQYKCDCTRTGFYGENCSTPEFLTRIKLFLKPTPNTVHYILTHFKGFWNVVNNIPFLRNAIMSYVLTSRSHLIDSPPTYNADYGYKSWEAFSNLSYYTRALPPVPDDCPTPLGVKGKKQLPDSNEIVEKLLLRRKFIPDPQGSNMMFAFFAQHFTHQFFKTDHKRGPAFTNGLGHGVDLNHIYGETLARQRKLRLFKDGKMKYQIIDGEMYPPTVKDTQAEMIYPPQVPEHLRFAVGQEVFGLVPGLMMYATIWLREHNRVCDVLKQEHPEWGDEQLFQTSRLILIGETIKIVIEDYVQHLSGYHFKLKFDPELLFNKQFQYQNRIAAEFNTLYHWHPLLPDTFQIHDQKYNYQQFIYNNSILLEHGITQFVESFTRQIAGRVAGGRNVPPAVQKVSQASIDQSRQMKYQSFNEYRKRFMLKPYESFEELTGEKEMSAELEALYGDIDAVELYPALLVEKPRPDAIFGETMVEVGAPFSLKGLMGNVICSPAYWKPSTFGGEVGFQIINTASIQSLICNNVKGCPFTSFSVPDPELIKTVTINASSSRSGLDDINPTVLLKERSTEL

Row | Compound | MIC [1] | zone of inhibition at 10000 µg/mL [2] | % Inhibition (proteinase) [3] | MIC [4] | zone of inhibition at 10000 µg/mL [5] | zone of inhibition at 10000 µg/mL [6] | melting point | MIC [7] | IC50 [8] | zone of inhibition at 10000 µg/mL [9] | zone of inhibition at 10000 µg/mL [10] | zone of inhibition at 10000 µg/mL [11] | IC50 [12] | SI, selectivity index (COX-1/COX-2) [12]
1 | Cc1ccc2oc(=O)c(S(=O)(=O)Nc3ccccc3)c(O)c2c1 [8b, 4-Hydroxy-6-methyl-2-oxo-N-phenyl-2H-chromene-3-sulfonamide] | 1000 µg/mL (≈ 3020 µM) | 17 mm | 14.3 ± 2.21% | 1000 µg/mL (≈ 3020 µM) | 19 mm | 20 mm | 324 to 325 °C | 1000 µg/mL (≈ 3020 µM) | 26 µM | 20 mm | 19 mm | 24 mm | 13.4 µM | 1.94
2 | O=c1oc2ccc(Cl)cc2c(O)c1S(=O)(=O)Nc1ccc(O)cc1 [8c, 6-Chloro-4-hydroxy-N-(4-hydroxyphenyl)-2-oxo-2H-chromene-3-sulfonamide] | 250 µg/mL (≈ 680 µM) | 29 mm | 41.69 ± 2.83% | 250 µg/mL (≈ 680 µM) | 31 to 32 mm | 30 mm | 250 to 251 °C | 250 µg/mL (≈ 680 µM) | 15.4 µM | 30 mm | 29 mm | 28 mm | 11.9 µM | 1.3 and 1.29
3 | Cc1ccc2oc(=O)c(S(=O)(=O)Nc3ccc(O)cc3)c(O)c2c1 [8d, 4-Hydroxy-N-(4-hydroxyphenyl)-6-methyl-2-oxo-2H-chromene-3-sulfonamide] | 250 µg/mL (≈ 720 µM) | 31 mm | 20.15 ± 7.31% | 125 µg/mL (≈ 360 µM) | 31 to 32 mm | 30 mm | 253 to 254 °C | 125 µg/mL (≈ 360 µM) | 19.4 µM | 30 mm | 29 mm | 29 mm | 1.86 µM | 10.5 and 10.45
